Measurements reported in patent US7521449B2, “4-arylmorpholin-3-one derivatives, their preparation and therapeutic use thereof” (Sanofi-Aventis, priority 2004, dated 2009).
Structures can show the parent of a compound that is named as a salt.

How the values were obtained:
[1] = biological target: T1, cloned human NK2 receptors (Homo sapiens, UniProt P21452); assay: Inhibition of the binding of [125I]His-neurokinin A to cloned human NK2 receptors expressed by CHO cells; conditions: binding of [125I]His-NKA, cloned human NK2 receptors expressed in CHO cells; read-out: inhibition constant Ki
T1 construct: expressed in transfected cells; host or cells: CHO cells
T1 sequence (P21452 1-398): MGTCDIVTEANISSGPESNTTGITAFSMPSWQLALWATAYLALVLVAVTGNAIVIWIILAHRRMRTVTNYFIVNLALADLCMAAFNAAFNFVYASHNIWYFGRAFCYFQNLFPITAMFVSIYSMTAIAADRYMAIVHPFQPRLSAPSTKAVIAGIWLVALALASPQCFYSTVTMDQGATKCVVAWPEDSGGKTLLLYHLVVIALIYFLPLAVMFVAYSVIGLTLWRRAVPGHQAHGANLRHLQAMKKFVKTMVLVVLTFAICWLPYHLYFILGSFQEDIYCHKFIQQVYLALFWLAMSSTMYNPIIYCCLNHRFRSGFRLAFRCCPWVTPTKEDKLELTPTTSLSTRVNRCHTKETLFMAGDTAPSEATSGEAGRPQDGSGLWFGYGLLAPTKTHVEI
Description: The affinity of the compounds for the tachykinin receptors NK2 was evaluated in vitro by measuring the inhibition of the binding of [^125I]His-neurokinin A ([^125I]His-NKA) to cloned human NK2 receptors expressed by CHO cells (Y. Takeda et al., J. Neurochem., 1992, 59, 740-745).
The trials were performed according to […]

[2] = biological target: T2, NK2 receptor (Mus musculus, UniProt P30549); assay: Spinning behavior caused by injection of [Nle10]NKA(4-10) into the striatum of mice, compounds administered orally; assay type: in vivo
T2 construct: from tissue; host or cells: mouse striatum (in vivo)
T2 sequence (P30549 1-384): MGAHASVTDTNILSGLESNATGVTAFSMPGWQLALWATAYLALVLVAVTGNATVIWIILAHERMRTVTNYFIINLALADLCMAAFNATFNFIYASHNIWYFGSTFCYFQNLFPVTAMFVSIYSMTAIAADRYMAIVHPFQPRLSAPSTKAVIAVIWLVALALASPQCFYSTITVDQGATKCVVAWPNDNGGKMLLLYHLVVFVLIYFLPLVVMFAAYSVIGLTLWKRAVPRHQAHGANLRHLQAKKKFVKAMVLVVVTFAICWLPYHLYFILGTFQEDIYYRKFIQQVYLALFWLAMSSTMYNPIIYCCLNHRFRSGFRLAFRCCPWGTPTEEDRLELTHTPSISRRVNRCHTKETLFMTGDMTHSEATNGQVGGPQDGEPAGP
Description: The compounds of the present invention were also evaluated in vivo in a model of pharmacodynamics.
In mice, injection into the striatum of a specific agonist of the NK2 receptor, [Nle^10]NKA(4-10), causes a spinning behavior, which is inhibited in a dose-dependent manner by the compounds according to the invention administered orally. This test was performed according to Poncelet et al. (Neurosci. Lett., 1993, 149, 40-42).

CC(=O)NC1(c2cccc(F)c2)CCN(CCC2(c3ccc(Cl)c(Cl)c3)CN(c3ccccc3)C(=O)CO2)CC1 (single isomer, unassigned) [Compound 3, N-[1-[2-[2-(3,4-Dichlorophenyl)-5-oxo-4-phenylmorpholin-2-yl]ethyl]-4-(3-fluorophenyl)piperid-4-yl]acetamide hydrochloride, dextrorotatory isomer]
Ki [1]: 0.16 nM | antagonism of the NK2 receptors (blocking the pharmacological effects caused by neurokinin A) ([2]; conclusion from the pharmacological results): antagonists of the NK2 receptors | ED50 ([2]; mouse, po, mice, orally, spinning behavior caused by intrastriatal [Nle10]NKA(4-10), read-out: 50 effective dose (ED50)): 0.023 mg/kg
